What was measured:
Assay in all cases: relative viability (nuclei count vs DMSO), 5 days (fraction); higher = more cells survive
KIN001-266 + AZD7762 = compound: CCN1CCC(CC1)N2C=C(N=N2)CNC3=CC4=C(C(=CN=C4C(=C3)Cl)C#N)NC5=CC(=C(C=C5)F)Cl [KIN001-266] + NC(=O)Nc1cc(-c2cccc(F)c2)sc1C(=O)N[C@H]1CCCNC1 [AZD7762] (partner 0.2 µM)
Outline: (§1)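 Each reported value is a median over duplicate plates. It expresses relative viability: treated-well nuclei count divided by vehicle-well nuclei count. Lung cancer cell lines in 1536-well plates were dosed by pin tool a day after seeding, alone with one drug or with a fixed anchor-drug dose plus five library-drug doses (not always all listed) in √10 steps, and nuclei were counted after 5 days.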

KIN001-266 + Decitabine = compound: CCN1CCC(CC1)N2C=C(N=N2)CNC3=CC4=C(C(=CN=C4C(=C3)Cl)C#N)NC5=CC(=C(C=C5)F)Cl [KIN001-266] + Nc1ncn([C@H]2C[C@H](O)[C@@H](CO)O2)c(=O)n1 [Decitabine] (partner 2 µM)
Outline: as §1

KIN001-266 + Tozasertib = compound: CCN1CCC(CC1)N2C=C(N=N2)CNC3=CC4=C(C(=CN=C4C(=C3)Cl)C#N)NC5=CC(=C(C=C5)F)Cl [KIN001-266] + Cc1cc(Nc2cc(N3CCN(C)CC3)nc(Sc3ccc(NC(=O)C4CC4)cc3)n2)n[nH]1 [Tozasertib] (partner 0.1 µM)
Outline: as §1

KIN001-266 + Bortezomib = compound: CCN1CCC(CC1)N2C=C(N=N2)CNC3=CC4=C(C(=CN=C4C(=C3)Cl)C#N)NC5=CC(=C(C=C5)F)Cl [KIN001-266] + CC(C)C[C@H](NC(=O)[C@H](Cc1ccccc1)NC(=O)c1cnccn1)B(O)O [Bortezomib] (partner 0.002 µM)
Outline: as §1

Cell Line | relative viability (KIN001-266 + AZD7762; first compound 0.08 µM) | relative viability (KIN001-266 + AZD7762; first compound 0.8 µM) | relative viability (KIN001-266 + AZD7762; first compound 8 µM) | relative viability (KIN001-266 + Decitabine; first compound 0.08 µM) | relative viability (KIN001-266 + Decitabine; first compound 0.253 µM) | relative viability (KIN001-266 + Decitabine; first compound 0.8 µM) | relative viability (KIN001-266 + Decitabine; first compound 8 µM) | relative viability (KIN001-266 + Tozasertib; first compound 0.08 µM) | relative viability (KIN001-266 + Tozasertib; first compound 0.253 µM) | relative viability (KIN001-266 + Tozasertib; first compound 0.8 µM) | relative viability (KIN001-266 + Tozasertib; first compound 2.53 µM) | relative viability (KIN001-266 + Tozasertib; first compound 8 µM) | relative viability (KIN001-266 + Bortezomib; first compound 0.08 µM) | relative viability (KIN001-266 + Bortezomib; first compound 0.253 µM) | relative viability (KIN001-266 + Bortezomib; first compound 0.8 µM) | relative viability (KIN001-266 + Bortezomib; first compound 2.53 µM) | relative viability (KIN001-266 + Bortezomib; first compound 8 µM) | relative viability (KIN001-266 + AZD7762; first compound 0.253 µM) | relative viability (KIN001-266 + AZD7762; first compound 2.53 µM) | relative viability (KIN001-266 + Decitabine; first compound 2.53 µM)
LCLC-97TM1 | 0.339 | 0.281 | 0.212 | 0.22 | 0.226 | 0.226 | 0.168 | 0.196 | 0.209 | 0.186 | 0.171 | 0.223 | 0.679 | 0.595 | 0.489 | 0.731 | 0.337 | – | – | –
HARA | 0.306 | 0.364 | 0.261 | 0.416 | 0.616 | 0.635 | 0.439 | 0.124 | 0.13 | 0.102 | 0.0995 | 0.0873 | 1.07 | 1.09 | 1.16 | 1.07 | 1.04 | 0.369 | 0.233 | 0.57
HCC-78 | 0.654 | 0.469 | 0.694 | 0.813 | 0.684 | 0.675 | 0.715 | 0.404 | 0.444 | – | 0.373 | 0.317 | 0.57 | 0.261 | 0.464 | 0.495 | 0.616 | 0.603 | 0.619 | 0.759
NCI-H1666 | 0.921 | 0.744 | 0.767 | 0.806 | 0.737 | 0.662 | 0.754 | 0.586 | 0.642 | 0.605 | 0.572 | 0.486 | 1.03 | 0.826 | 0.668 | 0.785 | 0.686 | 0.799 | 0.826 | 0.725
NCI-H2347 | 0.77 | 0.771 | 0.537 | 0.64 | 0.643 | 0.56 | 0.458 | 0.521 | 0.5 | 0.558 | 0.518 | 0.367 | 1.16 | 1.03 | 0.905 | 0.858 | 0.611 | 0.799 | 0.736 | 0.622
NCI-H838 | 0.945 | 0.886 | 0.924 | 0.476 | 0.488 | 0.454 | 0.371 | 0.266 | 0.299 | 0.257 | 0.254 | 0.22 | 0.831 | 0.737 | 0.85 | 0.719 | 0.56 | 0.83 | 0.914 | 0.423
NCI-H2023 | – | – | – | 0.21 | 0.217 | 0.217 | 0.289 | 0.39 | 0.341 | 0.419 | 0.292 | 0.184 | 1.08 | 1.1 | 1.2 | 1.03 | 0.76 | – | – | 0.216
201T | 0.66 | 0.577 | 0.681 | 0.848 | 0.885 | 0.868 | 0.842 | 0.915 | 0.915 | 0.915 | 0.919 | 0.856 | 1.09 | 0.941 | 1.08 | 1.06 | 1.16 | 0.629 | 0.54 | 0.78
NCI-H1915 | 0.703 | 0.687 | 0.727 | 0.28 | 0.287 | 0.249 | 0.278 | 0.447 | 0.418 | 0.396 | 0.422 | 0.369 | 0.979 | 0.986 | 0.997 | 0.877 | 0.898 | 0.729 | 0.729 | 0.265
NCI-H2009 | – | – | – | 0.394 | 0.367 | 0.437 | 0.391 | 0.788 | 0.704 | 0.808 | 0.674 | 0.386 | 1.02 | 1.06 | 1.09 | 0.95 | 0.658 | – | – | 0.357
BEN | 0.729 | 0.676 | 0.709 | 0.975 | 0.696 | 0.754 | 0.752 | 0.479 | 0.534 | 0.491 | 0.484 | 0.506 | 0.899 | 0.698 | 0.885 | 0.909 | 0.921 | 0.705 | 0.539 | 0.623
PC-14 | 0.365 | 0.315 | 0.3 | 0.214 | 0.253 | 0.2 | 0.229 | 0.577 | 0.655 | – | 0.589 | 0.432 | 0.881 | 0.816 | 0.892 | 0.759 | 0.297 | 0.405 | 0.355 | 0.265
SK-MES-1 | – | – | – | 0.383 | 0.37 | 0.386 | 0.433 | 0.944 | 0.869 | 0.934 | 0.756 | 0.66 | – | – | – | – | – | – | – | 0.391
NCI-H727 | 0.514 | 0.518 | 0.649 | 0.9 | 0.954 | 0.744 | 0.643 | 0.759 | 0.584 | 0.552 | 0.715 | 0.467 | 0.843 | 0.893 | 0.889 | 0.864 | 0.514 | 0.554 | 0.494 | 0.755
NCI-H1355 | 0.771 | 0.73 | 0.521 | 0.365 | 0.352 | 0.357 | 0.346 | 0.62 | 0.593 | 0.515 | 0.513 | 0.506 | 1.23 | 1.23 | 1.1 | 1.26 | 1.18 | 0.734 | 0.556 | 0.374
LK-2 | 0.505 | 0.19 | 0.219 | 0.384 | 0.298 | 0.309 | 0.41 | 0.182 | 0.18 | 0.174 | 0.185 | 0.154 | – | – | – | – | – | 0.292 | 0.143 | 0.318
NCI-H661 | – | – | – | 0.628 | 0.554 | 0.506 | 0.504 | 0.364 | 0.377 | 0.373 | 0.353 | 0.353 | 0.784 | 0.755 | 0.878 | 0.837 | 0.566 | – | – | 0.509
